From patent publication US8703768B2, “Nitrogen containing heteroaryl compounds” (Hoffmann-La Roche Inc., priority 2010, dated 2014) come the findings set out here.

For the test, the target named is human PDE10A (Homo sapiens (Human), UniProt Q9Y233). Put plainly: human PDE10A full length Scintillation Proximity Assay (SPA). Type of test: biochemical. The note with it: 50 nM cGMP and 50 nM [3H]-cGMP, 20 minutes at room temperature; read-out: PDE10A inhibition IC50. An outline of the steps: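 Radiometric SPA read-out: after 20 min at room temperature with [^3H]-cGMP/cGMP substrate, zinc sulphate (18 mM) bead stop reagent added and counts read after 1 h. Non-specific signal defined without enzyme; full-length protein used.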
Chain of human PDE10A (Q9Y233 other isoform, or with tags, fused parts or gaps): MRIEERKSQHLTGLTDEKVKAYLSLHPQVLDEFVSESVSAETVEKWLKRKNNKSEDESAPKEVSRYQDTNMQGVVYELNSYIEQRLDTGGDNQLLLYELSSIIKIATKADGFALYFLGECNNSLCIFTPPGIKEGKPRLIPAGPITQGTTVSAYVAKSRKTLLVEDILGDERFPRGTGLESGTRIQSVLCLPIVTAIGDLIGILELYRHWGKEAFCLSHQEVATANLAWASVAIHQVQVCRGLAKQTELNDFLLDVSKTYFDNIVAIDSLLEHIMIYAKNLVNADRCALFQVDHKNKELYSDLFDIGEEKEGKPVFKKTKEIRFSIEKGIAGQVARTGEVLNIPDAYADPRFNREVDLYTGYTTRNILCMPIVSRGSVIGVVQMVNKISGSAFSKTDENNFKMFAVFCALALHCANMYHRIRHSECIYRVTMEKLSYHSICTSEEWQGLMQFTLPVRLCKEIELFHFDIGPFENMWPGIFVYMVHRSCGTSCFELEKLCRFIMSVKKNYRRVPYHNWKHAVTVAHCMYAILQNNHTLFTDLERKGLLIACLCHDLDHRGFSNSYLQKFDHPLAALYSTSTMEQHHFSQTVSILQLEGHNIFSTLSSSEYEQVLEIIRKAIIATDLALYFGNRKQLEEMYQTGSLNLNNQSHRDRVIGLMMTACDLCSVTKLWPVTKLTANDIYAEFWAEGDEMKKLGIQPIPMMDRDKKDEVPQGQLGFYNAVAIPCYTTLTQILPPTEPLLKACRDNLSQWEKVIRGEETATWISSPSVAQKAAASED

SMILES strings stand for the structures.

With `Cn1cc(NC(=O)c2nc(C3CC3)ccc2Nc2cncnc2)c(C(=O)N2CCCCC2)n1` [Example 16, 6-Cyclopropyl-3-(pyrimidin-5-ylamino)-pyridine-2-carboxylic acid [1-methyl-3-(piperidine-1-carbonyl)-1H-pyrazol-4-yl]-amide], the IC50 stood at 7.6 nM. For `CN(CC(C)(C)O)C(=O)c1nn(C)cc1NC(=O)c1nc(C2CC2)cnc1Nc1cncnc1` [Example 111, 6-Cyclopropyl-N-(3-((2-hydroxy-2-methylpropyl)(methyl)carbamoyl)-1-methyl-1H-pyrazol-4-yl)-3-(pyrimidin-5-ylamino)pyrazine-2-carboxamide], the IC50 stood at 15 nM. `CNC(=O)c1c(NC(=O)c2nc(OCC(F)(F)F)cnc2Nc2cncnc2)cnn1C` [Example 339, 3-(Pyrimidin-5-ylamino)-6-(2,2,2-trifluoro-ethoxy)-pyrazine-2-carboxylic acid (1-methyl-5-methylcarbamoyl-1H-pyrazol-4-yl)-amide]: the IC50 was determined as 49.3 nM. The result for `CC(C)(O)CNC(=O)c1ncccc1NC(=O)c1nc(C(C)(C)C)ncc1Nc1cncnc1` [Example 330, 2-tert-Butyl-5-(pyrimidin-5-ylamino)-pyrimidine-4-carboxylic acid [2-(2-hydroxy-2-methyl-propylcarbamoyl)-pyridin-3-yl]-amide] reads 1.1 nM; that for `O=C(Nc1cnccc1C(=O)N1CCC(F)(F)C1)c1nc(C2CC2)ccc1Nc1cncnc1` [Example 56, 6-Cyclopropyl-3-(pyrimidin-5-ylamino)-pyridine-2-carboxylic acid [4-(3,3-difluoro-pyrrolidine-1-carbonyl)-pyridin-3-yl]-amide], 65.7 nM. On to `CNC(=O)c1c(NC(=O)c2nc(C3CC3)ccc2Nc2cncnc2)cnn1CCOC` [Example 11, 6-Cyclopropyl-3-(pyrimidin-5-ylamino)-pyridine-2-carboxylic acid [1-(2-methoxy-ethyl)-5-methylcarbamoyl-1H-pyrazol-4-yl]-amide], for which the IC50 was determined as 1.2 nM. In the case of `COCC(C)(C)CNC(=O)c1ccncc1NC(=O)c1nc(C2CC2)cnc1Nc1cncnc1` [Example 114, 6-Cyclopropyl-3-(pyrimidin-5-ylamino)-pyrazine-2-carboxylic acid [4-(3-methoxy-2,2-dimethyl-propylcarbamoyl)-pyridin-3-yl]-amide], the IC50 worked out at 1.1 nM. `CC(C)(O)CNC(=O)c1ccncc1NC(=O)c1nc(C2CC2)ccc1Nc1cncnc1` [Example 70, 6-Cyclopropyl-3-(pyrimidin-5-ylamino)-pyridine-2-carboxylic acid [4-(2-hydroxy-2-methyl-propylcarbamoyl)-pyridin-3-yl]-amide]: the IC50 was determined as 2.1 nM. As for `Cn1ncc(NC(=O)c2nc(C3CC3)cnc2Nc2cncnc2)c1C(=O)N1CCCO1` [Example 335, 6-Cyclopropyl-3-(pyrimidin-5-ylamino)-pyrazine-2-carboxylic acid [5-(isoxazolidine-2-carbonyl)-1-methyl-1H-pyrazol-4-yl]-amide], the IC50 stood at 0.8 nM. As for `CC1CCCN1C(=O)c1ccncc1NC(=O)c1nc(C2CC2)ccc1Nc1cncnc1` (stereo not shown) [Example 55, 6-Cyclopropyl-3-(pyrimidin-5-ylamino)-pyridine-2-carboxylic acid [4-(2-methyl-pyrrolidine-1-carbonyl)-pyridin-3-yl]-amide], the IC50 came out at 115 nM. The result for `CNC(=O)c1c(NC(=O)c2nc(C(C)C)ncc2Nc2cccc(F)c2)cnn1C` [Example 188, 5-(3-Fluoro-phenylamino)-2-isopropyl-pyrimidine-4-carboxylic acid (1-methyl-5-methylcarbamoyl-1H-pyrazol-4-yl)-amide] reads 51.7 nM; that for `CC(C)(O)CNC(=O)c1cc(OCCO)ccc1NC(=O)c1nc(C2CC2)cnc1Nc1cncnc1` [Example 215, 6-Cyclopropyl-3-(pyrimidin-5-ylamino)-pyrazine-2-carboxylic acid [4-(2-hydroxy-ethoxy)-2-(2-hydroxy-2-methyl-propylcarbamoyl)-phenyl]-amide], 0.5 nM. Turning to `O=C(Nc1cnccc1C(=O)N1CC(F)(F)C1)c1nc(C2CC2)ccc1Nc1cncnc1` [Example 79, 6-Cyclopropyl-3-(pyrimidin-5-ylamino)-pyridine-2-carboxylic acid [4-(3,3-difluoro-azetidine-1-carbonyl)-pyridin-3-yl]-amide], the IC50 was 29.6 nM. Under `CN(CC(C)(C)O)C(=O)c1ncncc1NC(=O)c1nc(C2CC2)cnc1Nc1cncnc1` [Example 122, 5-{[6-Cyclopropyl-3-(pyrimidin-5-ylamino)-pyrazine-2-carbonyl]-amino}-pyrimidine-4-carboxylic acid (2-hydroxy-2-methyl-propyl)-methyl-amide] stands 45.3 nM. Regarding `O=C(Nc1cccnc1C(=O)N1CCCC1)c1nc(C2CC2)cnc1Nc1cncnc1` [Example 198, 6-Cyclopropyl-3-(pyrimidin-5-ylamino)-pyrazine-2-carboxylic acid [2-(pyrrolidine-1-carbonyl)-pyridin-3-yl]-amide], the IC50 worked out at 2.5 nM. As for `Cn1ncc(NC(=O)c2nc(C3CC3)cnc2Nc2cncnc2)c1C(=O)NCCF` [Example 171, 6-Cyclopropyl-3-(pyrimidin-5-ylamino)-pyrazine-2-carboxylic acid [5-(2-fluoro-ethylcarbamoyl)-1-methyl-1H-pyrazol-4-yl]-amide], the half-inhibitory concentration (IC50) was 2.8 nM. Take `CNC(=O)c1nn(CCC(F)(F)F)cc1NC(=O)c1nc(C2CC2)ccc1Nc1cncnc1` [Example 9, 6-Cyclopropyl-3-(pyrimidin-5-ylamino)-pyridine-2-carboxylic acid [3-methylcarbamoyl-1-(3,3,3-trifluoro-propyl)-1H-pyrazol-4-yl]-amide]: the 50% inhibitory concentration (IC50) was determined as 149 nM. Under `CNC(=O)c1c(NC(=O)c2nc(N3CCCC3)cnc2Nc2cncnc2)cnn1C` [Example 289, 3-(Pyrimidin-5-ylamino)-6-pyrrolidin-1-yl-pyrazine-2-carboxylic acid (1-methyl-5-methylcarbamoyl-1H-pyrazol-4-yl)-amide] stands 24 nM. The result for `CNC(=O)c1cc(Cl)ncc1NC(=O)c1nc(C2CC2)cnc1Nc1cncnc1` [Example 259, 6-Cyclopropyl-3-(pyrimidin-5-ylamino)-pyrazine-2-carboxylic acid (6-chloro-4-methylcarbamoyl-pyridin-3-yl)-amide] reads 1.8 nM. With `CN(C)C(=O)c1cc(F)c(F)cc1NC(=O)c1nc(C2CC2)cnc1Nc1cncnc1` [Example 284, 6-Cyclopropyl-3-(pyrimidin-5-ylamino)-pyrazine-2-carboxylic acid (2-dimethylcarbamoyl-4,5-difluoro-phenyl)-amide], the IC50 came out at 28 nM.

For the molecule `CNC(=O)c1c(NC(=O)c2nc(C3CCOC3)cnc2Nc2cncnc2)cnn1C` (stereo not shown) [Example 160, 3-(Pyrimidin-5-ylamino)-6-(tetrahydro-furan-3-yl)-pyrazine-2-carboxylic acid (1-methyl-5-methylcarbamoyl-1H-pyrazol-4-yl)-amide], the IC50 stood at 2.9 nM. The result for `CNC(=O)c1nc(C)ccc1NC(=O)c1nc(C2CC2)cnc1Nc1cncnc1` [Example 182, 6-Cyclopropyl-3-(pyrimidin-5-ylamino)-pyrazine-2-carboxylic acid (6-methyl-2-methylcarbamoyl-pyridin-3-yl)-amide] reads 3.5 nM.
